For one experiment, the system named is Rhizoctonia solani. The settings on record: 168 h, read-out: control.
The subject of another experiment is Alternaria solani. The experiment in a line: Alternaria solani (early blight of tomato/potato) in vitro test, radial growth on Potato Dextrose Agar. The settings on record: 168 h, read-out: control.
The test system of another experiment is Botrytis cinerea. Description: Botrytis cinerea (Gray mold) in vitro test, radial growth on Potato Dextrose Agar. The settings on record: 168 h, read-out: control.
A further experiment relates to Septoria lycopersici. The experiment in a line: Septoria lycopersici (Leaf spot of tomato) in vitro test, radial growth on Potato Dextrose Agar. The settings on record: 168 h, read-out: control.
For another experiment, the system named is Fusarium culmorum. The experiment in a line: Fusarium culmorum (Foot rot of cereals) in vitro test, radial growth on Potato Dextrose Agar. In kind it is cell-based. To be noted: 168 h, read-out: control.
For the next experiment, the system named is Pyricularia oryzae. Description: microbe, parasite or virus in culture. To be noted: 168 h, read-out: control. In kind it is cell-based.
For a further experiment, the system named is Phakopsora pachyrhizi. Description: Phakopsora pachyrhizi test in soybean (in vivo on plants), preventive activity. The settings on record: preventive spray on soybean plants, inoculated one day after treatment, disease severity rated vs untreated check. As for the experimental part:
Example 8 (In Vivo on Plants): Phakopsora pachyrhizi Test in Soybean
Compounds were dissolved in 2% DMSO/Acetone & then mixed with water to the calibrated spray volume of 50 ml and poured into the spray bottles for further applications.
To test the preventive activity of compounds, healthy young soybean plants raised in the greenhouse were sprayed with active compound preparation at the stated application rates inside the spray cabinets using hallowcone nozzles. One day after treatment, the plants were inoculated with spore suspension containing 2.1×10^6 Phakopsora pachyrhizi inoculum. The inoculated plants were then kept in greenhouse chamber at 25° C. temperature & 90% Relative Humidity for disease expression.
A visual assessment of compound's performance was carried out by rating the disease severity (0-100% scale) on treated plants on 3, 7, 10 & 15 days after application. Efficacy (% control) of the compounds was calculated by comparing the disease rating in the treatment with the one of the untreated control. The sprayed plants were also assessed for compound's plant compatibility by recording symptoms like necrosis, chlorosis & stunting.

The next experiment concerns Colletotrichum capsici. The experiment in a line: Colletotrichum capsici (anthracnose) in vitro test, radial growth on Potato Dextrose Agar. The settings on record: Colletotrichum truncatum, 168 h, read-out: control.

Method for Alternaria solani: (§1) Compounds of present invention were assessed for activity against one or more of the following: Biological Test Examples, in vitro test
Method for Botrytis cinerea: as §1
Botrytis cinerea (Gray mold): Compounds were dissolved in 0.3% DMSO & then added to Potato Dextrose Agar medium just prior to dispensing it into Petri dishes. 5 ml medium with compound in the desired concentration was dispensed into 60 mm sterile Petri-plates. After solidification each plate was seeded with 5 mm size mycelial disc taken form periphery of actively growing virulent culture plate. Plates were incubated in growth chambers at 22° C. temperature & 90% Relative Humidity for seven days and radial growth was measured.
Method for Colletotrichum capsici: Colletotrichum capsici (anthracnose): Compounds were dissolved in 0.3% DMSO & then added to Potato Dextrose Agar medium just prior to dispensing it into Petri dishes. 5 ml medium with compound in the desired concentration was dispensed into 60 mm sterile petri-plates. After solidification each plate was seeded with 5 mm size mycelial disc taken form periphery of actively growing virulent culture plate. Plates were incubated in growth chambers at 25° C. temperature & 60% Relative Humidity for seven days and radial growth was measured.
Method for Rhizoctonia solani: Rhizoctonia solani (Rice sheath blight/Potato black scurf): Compounds were dissolved in 0.3% DMSO & then added to Potato Dextrose Agar medium just prior to dispensing it into Petri dishes. 5 ml medium with compound in the desired concentration was dispensed into 60 mm sterile Petri-plates. After solidification each plate was seeded with 5 mm size mycelial disc taken form periphery of actively growing virulent culture plate. Plates were incubated in growth chambers at 25° C. temperature & 60% Relative Humidity for seven days and radial growth was measured.
Method for Septoria lycopersici: Septoria lycopersici (Leaf spot of tomato): Compounds were dissolved in 0.3% DMSO & then added to Potato Dextrose Agar medium just prior to dispensing it into Petri dishes. 5 ml medium with compound in the desired concentration was dispensed into 60 mm sterile petri-plates. After solidification each plate was seeded with 5 mm size mycelial disc taken form periphery of actively growing virulent culture plate. Plates were incubated in growth chambers at 25° C. temperature & 70% Relative Humidity for seven days and radial growth was measured.

As to `CCN(C)C=Nc1cc(C)c(C(=O)CSc2ccc(C)c(C)c2)cc1C` [Compound 11, N′-(4-(2-((3,4-dimethylphenyl)thio)acetyl)-2,5-dimethylphenyl)-N-ethyl-N-methylformimidamide], the inhibition of growth at 300 ppm in the experiment with Rhizoctonia solani is over 70%; in the experiment with Alternaria solani it was over 70%; in the experiment with Botrytis cinerea it was over 70%; in the experiment with Septoria lycopersici it was over 70%; in the experiment with Fusarium culmorum, 70%; with Pyricularia oryzae, over 70%. For the same molecule, the inhibition of growth at 300 ppm with Colletotrichum capsici was over 70%. In addition, the pest or weed control at 500 ppm in the experiment on Phakopsora pachyrhizi was over 90%.
`CCN(C)C=Nc1cc(C)c(C(=O)COc2cccc(C)c2)cc1C` [Compound 12, N′-(2,5-dimethyl-4-(2-(m-tolyloxy)acetyl)phenyl)-N-ethyl-N-methylformimidamide]: the inhibition of growth at 300 ppm in the experiment with Rhizoctonia solani was over 70%; with Alternaria solani it was over 70%; in the experiment on Botrytis cinerea it was over 70%; in the experiment on Septoria lycopersici, over 70%; in the experiment on Fusarium culmorum, 70%; in the experiment with Pyricularia oryzae, over 70%. Also, in the experiment on Colletotrichum capsici, the inhibition of growth at 300 ppm is over 70%. This molecule yielded a pest or weed control at 500 ppm in the experiment on Phakopsora pachyrhizi of over 90%.
As to `CCN(C)C=Nc1cc(C)c(C(=O)COc2cccc(Cl)c2)cc1C` [Compound 13, N′-(4-(2-(3-chlorophenoxy)acetyl)-2,5-dimethylphenyl)-N-ethyl-N-methylformimidamide], the inhibition of growth at 300 ppm in the experiment with Rhizoctonia solani was over 70%; with Alternaria solani it was over 70%; in the experiment on Botrytis cinerea, over 70%; with Septoria lycopersici, over 70%; in the experiment with Fusarium culmorum, 70%; with Pyricularia oryzae it was over 70%. Further, the inhibition of growth at 300 ppm in the experiment with Colletotrichum capsici is over 70%. In addition, the pest or weed control at 500 ppm in the experiment with Phakopsora pachyrhizi is over 90%.

Broadly, the pest or weed control is the degree to which the test organism was suppressed or injured, in per cent.

The record behind these values is patent US11524934B2, “Phenylamine compounds” (PI INDUSTRIES LTD., priority 2017, dated 2022).
